Reference: patent US20230000945A1, “TOPICAL PHARMACEUTICAL FORMULATIONS OF A CYCLIC DEPSIPEPTIDE” (Lifemax Laboratories, Inc., priority 2020, published 2023)

Key:
[1] = Stability of LM030 formulations stored at 50° C. for 7 days; type: physicochemical; settings: summary of Table 7
[2] = General solubility and stability properties of LM030; type: physicochemical
From the text: Difficulties in formulating LM030 for topical administration are described in U.S. Pat. No. 8,680,054. In particular, the solubility and stability properties of LM030 create challenges in developing a topical formulation with adequate storage stability that is also able to provide an effective amount of active agent available for skin penetration [See col 4, lines 16-23].

## CC[C@H](C)[C@@H]1NC(=O)[C@H](Cc2ccc(O)cc2)N(C)C(=O)[C@H]([C@@H](C)CC)N2C(=O)[C@H](CC[C@H]2O)NC(=O)[C@H](CC(C)C)NC(=O)[C@@H](NC(=O)[C@H](CCC(N)=O)NC(=O)C(C)C)[C@@H](C)OC1=O [LM030]
[1]
  stability in the presence of aqueous solutions: poor stability
[2]
  solubility in lipophilic excipients: low
  solubility in polar organic solvents: good
  solubility in water and aqueous buffers: moderate
  stability in polar organic solvents: poor
